Assay [1] relates to Staphylococcus aureus. Kind of assay: Antibacterial activity against penicillin-resistant Staphylococcus aureus clinical isolate by broth microdilution method. In kind it is functional.
Assay [2] deals with Streptococcus pneumoniae. In words: Antibacterial activity against erythromycin-resistant Streptococcus pneumoniae A22072 expressing mef gene by broth microdilution method. In kind it is functional.
Assay [3] relates to Streptococcus pyogenes. In words: Antibacterial activity against erythromycin-susceptible Streptococcus pyogenes by broth microdilution method. The assay is classed as functional.
The test system of assay [4] is Streptococcus pyogenes. In words: Antibacterial activity against erythromycin-resistant Streptococcus pyogenes RE clinical isolate by broth microdilution method. The assay is classed as functional.
Assay [5] relates to Streptococcus pneumoniae. Kind of assay: Antibacterial activity against erythromycin-susceptible Streptococcus pneumoniae ATCC 49619 by broth microdilution method. In kind it is functional.
Assay [6] relates to Salmonella typhimurium. In words: Antibacterial activity against Salmonella typhimurium TA102 by broth microdilution method. The assay is classed as functional, Salmonella enterica subsp. enterica serovar Typhimurium. The settings on record: Salmonella enterica.
Assay [7] has as its system Salmonella typhimurium. In words: Antibacterial activity against Salmonella typhimurium TA98 by broth microdilution method. The assay is classed as functional, Salmonella enterica subsp. enterica serovar Typhimurium. The settings on record: Salmonella enterica.
For assay [8], the system named is Staphylococcus aureus. Kind of assay: Antibacterial activity against methicillin-susceptible Staphylococcus aureus ATCC 29213 by broth microdilution method. The assay is classed as functional.
Assay [9] has as its system Staphylococcus aureus. In words: Antibacterial activity against erythromycin-susceptible Staphylococcus aureus ATCC 25923 by broth microdilution method. The assay is classed as functional.
The test system of assay [10] is Streptococcus pneumoniae. Kind of assay: Antibacterial activity against erythromycin-resistant Streptococcus pneumoniae B1 expressing erm gene by broth microdilution method. In kind it is functional.
Assay [11] deals with Streptococcus pneumoniae. In words: Antibacterial activity against erythromycin-resistant Streptococcus pneumoniae AB11 expressing erm and mef genes by broth microdilution method. The assay is classed as functional.

Molecules are shown by their SMILES. ≈ marks a conversion by molar mass, not a printed value.

This note sets out measurements from ChEMBL document CHEMBL2311450, “Synthesis and antibacterial evaluation of novel 11,4″-disubstituted azithromycin analogs with greatly improved activity against erythromycin-resistant bacteria” (2013).

For `CC[C@H]1OC(=O)[C@H](C)[C@@H](O[C@H]2C[C@@](C)(OC)[C@@H](OC(=O)NCCCCNC(=O)c3ccc(OC)cc3)[C@H](C)O2)[C@H](C)[C@@H](O[C@@H]2O[C@H](C)C[C@H](N(C)C)[C@H]2O)[C@](C)(O)C[C@@H](C)CN(C)[C@H](C)[C@@H](OC(=O)NCCc2ccccc2)[C@]1(C)O`, the MIC in the assay with Staphylococcus aureus [1] amounted to 4 µg/mL (≈ 3.5 µM); against Streptococcus pneumoniae [2], 0.25 µg/mL (≈ 0.218 µM); in the assay with Streptococcus pyogenes [3] it was 16 µg/mL (≈ 14 µM); in the assay with Streptococcus pyogenes [4] it was 64 µg/mL (≈ 55.9 µM); in the assay with Streptococcus pneumoniae [5] it was 0.06 µg/mL (≈ 0.0524 µM); in the assay with Salmonella typhimurium [6], 0.5 µg/mL (≈ 0.437 µM). Also, the MIC with Salmonella typhimurium [7] is 4 µg/mL (≈ 3.5 µM); with Staphylococcus aureus [8], 0.5 µg/mL (≈ 0.437 µM); against Staphylococcus aureus [9], 1 µg/mL (≈ 0.874 µM); with Streptococcus pneumoniae [10] it was 1 µg/mL (≈ 0.874 µM); in the assay on Streptococcus pneumoniae [11] it was 4 µg/mL (≈ 3.5 µM).

Consider `CC[C@H]1OC(=O)[C@H](C)[C@@H](O[C@H]2C[C@@](C)(OC)[C@@H](OC(=O)NCCCCNC(=O)c3ccc(OC)cc3)[C@H](C)O2)[C@H](C)[C@@H](O[C@@H]2O[C@H](C)C[C@H](N(C)C)[C@H]2O)[C@](C)(O)C[C@@H](C)CN(C)[C@H](C)[C@@H](OC(=O)NCc2ccc(F)cc2)[C@]1(C)O`, for which the minimum inhibitory concentration (MIC) was 4 µg/mL (≈ 3.48 µM) against Staphylococcus aureus [1]; 0.25 µg/mL (≈ 0.218 µM) in the assay with Streptococcus pneumoniae [2]; 32 µg/mL (≈ 27.9 µM) in the assay on Streptococcus pyogenes [3]; 64 µg/mL (≈ 55.7 µM) against Streptococcus pyogenes [4]; 0.06 µg/mL (≈ 0.0522 µM) with Streptococcus pneumoniae [5]; 1 µg/mL (≈ 0.871 µM) in the assay on Salmonella typhimurium [6]. Besides, the MIC against Salmonella typhimurium [7] was determined as 8 µg/mL (≈ 6.97 µM); in the assay with Staphylococcus aureus [8], 8 µg/mL (≈ 6.97 µM); in the assay on Staphylococcus aureus [9] it was 1 µg/mL (≈ 0.871 µM); with Streptococcus pneumoniae [10], 4 µg/mL (≈ 3.48 µM); in the assay on Streptococcus pneumoniae [11], 16 µg/mL (≈ 13.9 µM).

For the molecule `CC[C@H]1OC(=O)[C@H](C)[C@@H](O[C@H]2C[C@@](C)(OC)[C@@H](OC(=O)NCCCCNC(=O)c3ccc(OC)cc3)[C@H](C)O2)[C@H](C)[C@@H](O[C@@H]2O[C@H](C)C[C@H](N(C)C)[C@H]2O)[C@](C)(O)C[C@@H](C)CN(C)[C@H](C)[C@@H](OC(=O)NCCc2ccc(F)cc2)[C@]1(C)O`, the MIC against Staphylococcus aureus [1] stood at 4 µg/mL (≈ 3.44 µM); in the assay with Streptococcus pneumoniae [2], 0.5 µg/mL (≈ 0.43 µM); in the assay with Streptococcus pyogenes [3] it was 16 µg/mL (≈ 13.8 µM); against Streptococcus pyogenes [4] it was 64 µg/mL (≈ 55.1 µM); against Streptococcus pneumoniae [5], 0.12 µg/mL (≈ 0.103 µM); against Salmonella typhimurium [6] it was 2 µg/mL (≈ 1.72 µM). Also, the MIC was 4 µg/mL (≈ 3.44 µM) with Salmonella typhimurium [7]; 2 µg/mL (≈ 1.72 µM) in the assay with Staphylococcus aureus [8]; 1 µg/mL (≈ 0.86 µM) in the assay on Staphylococcus aureus [9]; 4 µg/mL (≈ 3.44 µM) in the assay with Streptococcus pneumoniae [10]; 8 µg/mL (≈ 6.88 µM) in the assay with Streptococcus pneumoniae [11].

With `CC[C@H]1OC(=O)[C@H](C)[C@@H](O[C@H]2C[C@@](C)(OC)[C@@H](OC(=O)NNC(=O)c3ccccc3OC)[C@H](C)O2)[C@H](C)[C@@H](O[C@@H]2O[C@H](C)C[C@H](N(C)C)[C@H]2O)[C@](C)(O)C[C@@H](C)CN(C)[C@H](C)[C@@H](OC(=O)NCCc2ccccc2)[C@]1(C)O`, the minimal inhibitory concentration (MIC) with Staphylococcus aureus [1] was 4 µg/mL (≈ 3.68 µM); in the assay with Streptococcus pneumoniae [2], 2 µg/mL (≈ 1.84 µM); in the assay with Streptococcus pyogenes [3] it was 32 µg/mL (≈ 29.4 µM); against Streptococcus pyogenes [4], 64 µg/mL (≈ 58.8 µM); in the assay with Streptococcus pneumoniae [5] it was 0.06 µg/mL (≈ 0.0551 µM); against Salmonella typhimurium [6], 8 µg/mL (≈ 7.35 µM). Further, the minimum inhibitory concentration (MIC) in the assay with Salmonella typhimurium [7] amounted to 16 µg/mL (≈ 14.7 µM); in the assay with Staphylococcus aureus [8] it was 2 µg/mL (≈ 1.84 µM); in the assay with Staphylococcus aureus [9] it was 2 µg/mL (≈ 1.84 µM); in the assay on Streptococcus pneumoniae [10], 8 µg/mL (≈ 7.35 µM); against Streptococcus pneumoniae [11] it was 16 µg/mL (≈ 14.7 µM).

Consider `CC[C@H]1OC(=O)[C@H](C)[C@@H](O[C@H]2C[C@@](C)(OC)[C@@H](OC(=O)NCCCCNC(=O)c3ccc(OC)cc3)[C@H](C)O2)[C@H](C)[C@@H](O[C@@H]2O[C@H](C)C[C@H](N(C)C)[C@H]2O)[C@](C)(O)C[C@@H](C)CN(C)[C@H](C)[C@@H](OC(=O)NCc2ccc(C)c(C)c2)[C@]1(C)O`, for which the MIC against Staphylococcus aureus [1] worked out at 4 µg/mL (≈ 3.45 µM); in the assay with Streptococcus pneumoniae [2], 0.5 µg/mL (≈ 0.432 µM); against Streptococcus pyogenes [3] it was 16 µg/mL (≈ 13.8 µM); in the assay with Streptococcus pyogenes [4], 64 µg/mL (≈ 55.2 µM); against Streptococcus pneumoniae [5], 0.12 µg/mL (≈ 0.104 µM); in the assay with Salmonella typhimurium [6], 1 µg/mL (≈ 0.863 µM). The MIC in the assay on Salmonella typhimurium [7] is 8 µg/mL (≈ 6.91 µM); in the assay with Staphylococcus aureus [8], 8 µg/mL (≈ 6.91 µM); in the assay on Staphylococcus aureus [9], 1 µg/mL (≈ 0.863 µM); against Streptococcus pneumoniae [10], 4 µg/mL (≈ 3.45 µM); against Streptococcus pneumoniae [11], 16 µg/mL (≈ 13.8 µM).

For `CC[C@H]1OC(=O)[C@H](C)[C@@H](O[C@H]2C[C@@](C)(OC)[C@@H](OC(=O)NCCNC(=O)c3ccc(C)cc3)[C@H](C)O2)[C@H](C)[C@@H](O[C@@H]2O[C@H](C)C[C@H](N(C)C)[C@H]2O)[C@](C)(O)C[C@@H](C)CN(C)[C@H](C)[C@@H](OC(=O)NCCc2ccccc2)[C@]1(C)O`, the minimal inhibitory concentration (MIC) was 8 µg/mL (≈ 7.27 µM) in the assay on Staphylococcus aureus [1]; 0.12 µg/mL (≈ 0.109 µM) with Streptococcus pneumoniae [2]; 8 µg/mL (≈ 7.27 µM) against Streptococcus pyogenes [3]; 64 µg/mL (≈ 58.2 µM) in the assay on Streptococcus pyogenes [4]; 0.06 µg/mL (≈ 0.0545 µM) against Streptococcus pneumoniae [5]; 2 µg/mL (≈ 1.82 µM) in the assay on Salmonella typhimurium [6]. For the same molecule, the minimal inhibitory concentration (MIC) against Salmonella typhimurium [7] came out at 2 µg/mL (≈ 1.82 µM); in the assay on Staphylococcus aureus [8] it was 2 µg/mL (≈ 1.82 µM); in the assay with Staphylococcus aureus [9], 1 µg/mL (≈ 0.909 µM); with Streptococcus pneumoniae [10], 2 µg/mL (≈ 1.82 µM); in the assay on Streptococcus pneumoniae [11], 8 µg/mL (≈ 7.27 µM).

For the molecule `CC[C@H]1OC(=O)[C@H](C)[C@@H](O[C@H]2C[C@@](C)(OC)[C@@H](OC(=O)NCCCCNC(=O)c3ccccc3OC)[C@H](C)O2)[C@H](C)[C@@H](O[C@@H]2O[C@H](C)C[C@H](N(C)C)[C@H]2O)[C@](C)(O)C[C@@H](C)CN(C)[C@H](C)[C@@H](OC(=O)NCCc2ccccc2)[C@]1(C)O`, the minimum inhibitory concentration (MIC) amounted to 8 µg/mL (≈ 6.99 µM) in the assay on Staphylococcus aureus [1]; 2 µg/mL (≈ 1.75 µM) in the assay on Streptococcus pneumoniae [2]; 16 µg/mL (≈ 14 µM) in the assay with Streptococcus pyogenes [3]; 16 µg/mL (≈ 14 µM) in the assay with Streptococcus pyogenes [4]; 0.12 µg/mL (≈ 0.105 µM) against Streptococcus pneumoniae [5]; 1 µg/mL (≈ 0.874 µM) against Salmonella typhimurium [6]. Besides, the MIC in the assay with Salmonella typhimurium [7] was 4 µg/mL (≈ 3.5 µM); against Staphylococcus aureus [8], 32 µg/mL (≈ 28 µM); in the assay with Staphylococcus aureus [9], 0.5 µg/mL (≈ 0.437 µM); in the assay on Streptococcus pneumoniae [10] it was 8 µg/mL (≈ 6.99 µM); against Streptococcus pneumoniae [11] it was 16 µg/mL (≈ 14 µM).
